EP0075095A2, “Cephalosporin derivatives, process for their preparation, pharmaceutical compositions containing them and intermediates” (F. HOFFMANN-LA ROCHE & CO. Aktiengesellschaft, priority 1981, dated 1983)

Tests used:
Serratia marcescens = test: Oral antimicrobial activity in vivo in the mouse (curative dose CD50), Serratia marcescens infection; parameters: species or system Maus; details: peroral dose at which 50% of tested mice survive, read-out: CD50, p.o.
Description: (§1) Die orale antimikrobielle Wirksamkeit der erwähnten Produkte kann anhand von in-vivo-Versuchen an der Maus nachgewiesen werden. Im nachstehenden bedeutet die kurative Dosis (CD50, p.o., mg/kg) diejenige perorale Dosis, bei der 50% der getesteten Mäuse überleben.
(§2) Ergebnis (CD50, p.o., mg/kg)

Klebsiella pneumoniae = test: Oral antimicrobial activity in vivo in the mouse (curative dose CD50), Klebsiella pneumoniae infection; parameters: species or system Maus; details: peroral dose at which 50% of tested mice survive, read-out: CD50, p.o.
Description: as §1, §2

Streptococcus pyogenes = test: Oral antimicrobial activity in vivo in the mouse (curative dose CD50), Streptococcus pyogenes infection; parameters: species or system Maus; details: peroral dose at which 50% of tested mice survive, read-out: CD50, p.o.
Description: as §1, §2

in vivo = details: mouse, po
Escherichia coli = test: Oral antimicrobial activity in vivo in the mouse (curative dose CD50), Escherichia coli infection; parameters: species or system Maus; details: peroral dose at which 50% of tested mice survive, read-out: CD50, p.o.
Description: as §1, §2

## CO/N=C(\C(=O)N[C@@H]1C(=O)N2C(C(=O)OCOC(=O)C(C)(C)C)=C(CSc3nc(C(=O)OC)nn3CC(=O)OCOC(=O)C(C)(C)C)CS[C@H]12)c1csc(N)n1 [Produkt D, Methylen-(6R,7R)-7-[(Z)-2-(2-Amino-4-thiazolyl)-2-(methoxyimino)-acetamido]-3-[[[5-(methoxycarbonyl)-2-[[[(pivaloyloxy)methoxy]-carbonyl]methyl]-2H-1,2,4-triazol-3-yl]thio]-methyl]-8-oxo-5-thia-1-azabicyclo[4.2.0]oct-2-en-2-carboxylat-pivalat]
Serratia marcescens
  ED50: > 6 mg/kg
Klebsiella pneumoniae
  ED50: 12.5 mg/kg
Streptococcus pyogenes
  ED50: 8.8 mg/kg
In vivo
  LD50 at 24 h: > 5000 mg/kg

## CCn1nc(C(=O)OC)nc1SCC1=C(C(=O)OCOC(=O)C(C)(C)C)N2C(=O)[C@@H](NC(=O)/C(=N\OC)c3csc(N)n3)[C@H]2SC1 [Produkt C, Methylen-(6R,7R)-7-[(Z)-2-(2-Amino-4-thiazolyl)-2-(methoxyimino)acetamido]-3-[[[2-äthyl-5-(methoxycarbonyl)-2H-1,2,4-triazol-3-yl]thio]methyl]-8-oxo-5-thia-2-azabicyclo[4.2.0]oct-2-en-2-carboxylat-pivalat]
Serratia marcescens
  ED50: 2.54 mg/kg
Streptococcus pyogenes
  ED50: 0.53 mg/kg

## CCCn1nc(C(=O)OC)nc1SCC1=C(C(=O)OCOC(=O)C(C)(C)C)N2C(=O)[C@@H](NC(=O)/C(=N\OC)c3csc(N)n3)[C@H]2SC1 [Produkt E]
Serratia marcescens
  ED50: 1.8 mg/kg
Klebsiella pneumoniae
  ED50: 2.5 mg/kg
Escherichia coli
  ED50: 0.04 mg/kg
Streptococcus pyogenes
  ED50: 0.89 mg/kg
In vivo
  LD50 at 24 h: > 5000 mg/kg

## CC1=C(C(=O)O)N2C(=O)[C@@H](NC(=O)[C@H](N)c3ccccc3)[C@H]2SC1 [Cephalexin, reference compound]
Serratia marcescens
  ED50: > 50 mg/kg
Escherichia coli
  ED50: 3.2 mg/kg
Streptococcus pyogenes
  ED50: 1.8 mg/kg

## CCOC(=O)c1nc(SCC2=C(C(=O)OCOC(=O)C(C)(C)C)N3C(=O)[C@@H](NC(=O)/C(=N\OC)c4csc(N)n4)[C@H]3SC2)n(C)n1 [Produkt B]
Serratia marcescens
  ED50: 0.8 mg/kg
Streptococcus pyogenes
  ED50: 2.1 mg/kg
In vivo
  LD50 at 24 h: > 5000 mg/kg

## CO/N=C(\C(=O)N[C@@H]1C(=O)N2C(C(=O)OCOC(=O)C(C)(C)C)=C(CSc3nc(C(=O)OC)nn3C)CS[C@H]12)c1csc(N)n1 [Produkt A]
Serratia marcescens
  ED50: 1.5 mg/kg
Klebsiella pneumoniae
  ED50: 3.7 mg/kg
Escherichia coli
  ED50: 0.07 mg/kg
Streptococcus pyogenes
  ED50: 0.72 mg/kg
In vivo
  LD50 at 24 h: > 5000 mg/kg

## CO/N=C(\C(=O)N[C@@H]1C(=O)N2C(C(=O)OCOC(=O)C(C)(C)C)=C(CSc3nc(C(=O)OC)nn3-c3ccccc3)CS[C@H]12)c1csc(N)n1 [Produkt F]
Serratia marcescens
  ED50: 5.8 mg/kg
Klebsiella pneumoniae
  ED50: > 12 mg/kg
Streptococcus pyogenes
  ED50: 1.5 mg/kg
In vivo
  LD50 at 24 h: > 5000 mg/kg
